System: MAP
Test: Phenylephrine-induced MAP in a conscious canine model
Type: in vivo
Conditions: conscious dog
Procedure: In-Vivo Evaluation of α1-Adrenergic Antagonists on IUP and MAP in a Conscious Canine Model
An anesthetized dog was fitted with a balloon catheter for the measurement of changes in prostatic IUP and with a number of implanted pressure transducers and telemetry transmitters for measuring MAP.
The pressor effects of challenge doses […] of the α-adrenergic agonist phenylephrine upon IUP and MAP were measured before and at various time points after a single dose (p.o.) of an α-adrenergic antagonist test compound (Compound 69) of the present invention.
Each treatment group was dosed with a test compound (0.1, 0.3, 1.0 and 3.0 mg/kg) in four separate experiments. The first challenge dose of phenylephrine for each treatment group was administered at the time of the test compound dose (time 0). The value for the first challenge dose represents an average of up to three challenge doses administered prior to time 0.
Subsequent challenge doses for all treatment groups were administered at 30 min. then one hour and two hours after time 0.
The final challenge doses for the 0.1 and 0.3 mg/kg groups were administered at four and six hours after time 0. The final challenge doses for the 1.0 mg/kg group were administered at four, six and eight hours after time 0. The final challenge doses for the 3.0 mg/kg group were administered at four, six, 12 and 24 hours after time 0.
A pressure transducer and telemetry transmitter (DSI TA11PA-D70 35 cm, Data Sciences International, St. Paul, Minn.) were implanted according to directions in “PA Device Surgical Manual” provided by the manufacturer.
A test compound was administered via the cephalic or saphenous vein using an appropriately sized IV catheter (Surflo, Terumo Medical Corporation or equivalent).
Prior to test compound administration, IUP and MAP responses to an individualized dose of phenylephrine (either 10 or 15 μg/kg IV, depending on the individual animal's response) was repeated 2 to 3 times to establish a baseline response. After test compound administration, the individualized phenylephrine dose was administered to each animal at predetermined intervals over a period of up to 24 hours.
Data for phenylephrine-induced changes in IUP and MAP were tabulated for each treatment group and each experiment. A mean value and standard deviation for the phenylephrine-induced changes to the effect of a test compound on IUP and MAP at each dose was calculated and tabulated for each treatment group over the length of the study.

SMILES: COc1ccc(S(=O)(=O)N[C@H]2CC[C@@H](N3CCN(c4ccccc4OCC(F)(F)F)CC3)CC2)cc1OC [Cpd 69, 3,4-Dimethoxy-N-cis-(4-{4-[2-(2,2,2-trifluoro-ethoxy)-phenyl]-piperazin-1-yl}-cyclohexyl)-benzenesulfonamide]
- MAP, normalized % of baseline (mean) (0.1 mg/kg p.o., 0 hrs (baseline)): 100%
- MAP, normalized % of baseline (mean) (0.1 mg/kg p.o., 0.5 hrs after dose): 87.7%
- MAP, normalized % of baseline (mean) (0.1 mg/kg p.o., 1 hrs after dose): 93.3%
- MAP, normalized % of baseline (mean) (0.1 mg/kg p.o., 2 hrs after dose): 80.1%
- MAP, normalized % of baseline (mean) (0.1 mg/kg p.o., 4 hrs after dose): 89.7%
- MAP, normalized % of baseline (mean) (0.1 mg/kg p.o., 6 hrs after dose): 91.0%
- MAP, normalized % of baseline (mean) (0.3 mg/kg p.o., 0 hrs (baseline)): 100%
- MAP, normalized % of baseline (mean) (0.3 mg/kg p.o., 0.5 hrs after dose): 64.9%
- MAP, normalized % of baseline (mean) (0.3 mg/kg p.o., 1 hrs after dose): 59.3%
- MAP, normalized % of baseline (mean) (0.3 mg/kg p.o., 2 hrs after dose): 67.7%
- MAP, normalized % of baseline (mean) (0.3 mg/kg p.o., 4 hrs after dose): 85.6%
- MAP, normalized % of baseline (mean) (0.3 mg/kg p.o., 6 hrs after dose): 103.9%
- MAP, normalized % of baseline (mean) (1.0 mg/kg p.o., 0 hrs (baseline)): 100%
- MAP, normalized % of baseline (mean) (1.0 mg/kg p.o., 0.5 hrs after dose): 47.3%
- MAP, normalized % of baseline (mean) (1.0 mg/kg p.o., 1 hrs after dose): 37.2%
- MAP, normalized % of baseline (mean) (1.0 mg/kg p.o., 2 hrs after dose): 52.8%
- MAP, normalized % of baseline (mean) (1.0 mg/kg p.o., 4 hrs after dose): 61.3%
- MAP, normalized % of baseline (mean) (1.0 mg/kg p.o., 6 hrs after dose): 76.6%
- MAP, normalized % of baseline (mean) (1.0 mg/kg p.o., 8 hrs after dose): 87.8%
- MAP, normalized % of baseline (mean) (3.0 mg/kg p.o., 0 hrs (baseline)): 100%
- MAP, normalized % of baseline (mean) (3.0 mg/kg p.o., 0.5 hrs after dose): 43.4%
- MAP, normalized % of baseline (mean) (3.0 mg/kg p.o., 1 hrs after dose): 19.7%
- MAP, normalized % of baseline (mean) (3.0 mg/kg p.o., 2 hrs after dose): 21.7%
- MAP, normalized % of baseline (mean) (3.0 mg/kg p.o., 4 hrs after dose): 39.8%
- MAP, normalized % of baseline (mean) (3.0 mg/kg p.o., 6 hrs after dose): 50.2%
- MAP, normalized % of baseline (mean) (3.0 mg/kg p.o., 12 hrs after dose): 80.2%
- MAP, normalized % of baseline (mean) (3.0 mg/kg p.o., 24 hrs after dose): 95.1%

— patent publication US20060173015A1, “Cyclohexyldiamines as selective alpha 1a/1d adrenoreceptor antagonists for the treatment of benign prostatic hypertrophy and lower urinary tract symptoms” (priority 2004, published 2006)
